From US20070087400A1, “Covalent tethering of functional groups to proteins and substrates therefor” (priority 2004, published 2007)
Like-named read-outs stand apart in the source and are kept apart here.

Assays:
[1] = test system: CHO-K1 cells; test: Permeability of cell membrane to substrates (uptake and wash-out)
Protocol: (§2) Fresh media was then added to cells, and the cells were returned to the CO2 incubator at 37° C. The level of fluorescence in cells in 96 well plates was measured on fluorescent plate reader CytoFluor II (Beckman) at Eex/Eem equal 480/520 nm and 540/575 nm for carboxyfluorescein-and carboxytetramethylrhodamine-modified substrates, respectively. Fluorescent images of the cells were taken on inverted epifluorescent microscope Axiovert-100 (Carl Zeiss) with filter sets appropriate for detection of FITC and carboxytetramethylrhodamine.

[2] = test system: DhaA.H272 mutants, i.e. H272F/G/A/Q; test: In vitro binding and pretreatment blocking, SDS-PAGE; design: species or system Rhodococcus rhodochrous
From the text: FIG. 10 illustrates that pretreatment of a mutant DhaA with a substrate, biotin-C10H21NO2—Cl, blocks binding of another substrate. DhaA.WT-lanes 1 and 2; DhaA.H272 mutants: F, lanes 3 and 4; G, lanes 5 and 6; A, lanes 7 and 8; and Q, lanes 9 and 10. Samples 2, 4, 6, 8, and 10 were pretreated with biotin-C10H21NO2—Cl.
(§1) Then the proteins were resolved on SDS-PAGE.

[3] = test system: CHO-K1 cells; test: Toxicity of Cl-alkanes, CellTiter-Glo Luminescence Cell Viability Assay; assay type: cell-based
Protocol: To study the toxicity of Cl-alkanes, CHO-K1 cells were plated in 96 well plates to a density of 5,000 cells per well. […] Viability of the cells was measured with CellTiter-Glo™ Luminescence Cell Viability Assay (Promega) according to the manufacturer's protocol. Generally, 100 μl of CellTiter-Glo™ reagent was added directly to the cells and the luminescence was recorded at 10 minutes using a DYNEX MLX microtiter plate luminometer.

[4] = test system: E. coli; test: Permeability of plasma membrane of prokaryotic cells to substrates
[5] = Tethering of R.Luc-DhaA fusions to streptavidin-coated plates via biotin Cl-alkane; settings: pretreatment of R.Luc-connector-DhaA.H272F
Protocol: Translated proteins were contacted with biotin-C10H21N1O2—Cl substrate at 25 μM (final concentration), for 60 minutes at room temperature. Unbound biotin-C10H21N1O2—Cl was removed by gel-filtration on Sephadex G-25 prepackaged columns (Amersham Biosciences). Collected fractions of R.Luc-connector-DhaA fusions were placed in SA-coated 96-well plate for 1 hour at room temperature, unbound proteins were washed out and luciferase activity was measured.

[6] = molecular target: streptavidin (Streptomyces avidinii, UniProt P22629); settings: surface plasmon resonance; cited from earlier work
[7] = molecular target: DhaA.WT (Rhodococcus rhodochrous, UniProt P0A3G2); test: Hydrolysis of Cl-alkanes, pH-indicator dye (phenol red) assay; assay type: biochemical
From the text: To study the effect of a point mutation on the activity of DhaA (WT or mutant) hydrolysis of Cl-alkanes, a pH-indicator dye system as described by Holloway et al. (1998) was employed.

[8] = molecular target: DhaA.H272F (Rhodococcus rhodochrous, UniProt P0A3G2, H272F); test: In vitro binding of Cl-alkanes with functional groups, SDS-PAGE with fluoroimager or HRP-streptavidin; settings: dose dependent, 0.04-125 μM tested
From the text: as §1

[9] = test system: CHO-K1 cells
Protocol: as §2

[10] = molecular target: tetracysteine domain in a recombinant protein; settings: cited from earlier work

Compound: O=C(NCCOCCOCCCCCCCl)c1ccc(-c2c3ccc(=O)cc-3oc3cc(O)ccc23)c(C(=O)O)c1 [N-{2-[2-(6-Chlorohexyloxy)-ethoxyl-ethyl}-fluorescein-5-amide]
- permeability of plasma membrane of CHO-K1 cells [1]: did not cross the plasma membrane

Compound: N-{2-[2-(6-Chlorohexyloxy)-ethoxy]-ethyl}-tetramethylrhodamine-5-(and -6)-amide
- binding to DhaA.H272F/G/A/Q [2]: bound
- toxicity after a 4 hour treatment ([3]; 100 μM (the highest concentration tested)): no toxicity
- maximum non-toxic concentration ([3]; 24 hour treatment): 6.25 µM
- IC50 ([3]; 24 hour treatment, read-out: IC50 of reduction of relative luminescence): ~100 µM
- permeability of plasma membrane of CHO-K1 cells [1]: permeable
- permeability of plasma membrane of E. coli [4]: permeable
- decrease of efficiency of capturing by pretreatment with non-biotinylated substrate [5]: about 80%

Compound: O=C(O)CCCC[C@@H]1SC[C@@H]2NC(=O)N[C@@H]21 [biotin]
- on-rate [6]: 5e+06 M⁻¹ s⁻¹

Compound: OCCCCCCCCCCCl [1-Cl-alkane-10-decanol]
- initial rate of hydrolysis (IRH) ([7]; first 60 seconds after enzyme addition): much higher than the IRH of 1-Cl-decane

Compound: O=C(CCCC[C@@H]1SC[C@@H]2NC(=O)N[C@@H]21)NCCOCCOCCCCCCCl [biotin-C10H21NO2—Cl]
- concentration at which binding to DhaA.H272F could be detected [8]: 0.2 µM
- permeability of plasma membrane of CHO-K1 cells [9]: permeable
- permeability of plasma membrane of E. coli [4]: permeable

Compound: O=C1OC2(c3ccccc31)c1ccc(O)c([As]3SCCS3)c1Oc1c2ccc(O)c1[As]1SCCS1 [FLASH, 4′,5′-bis(1,3,2-dithioarsolan-2-yl)fluorescein]
- dissociation constant [10]: nanomolar or lower

Compound: CCCCCl [1-Cl-butane]
- activity of the wild-type enzyme with the substrate ([7]; 0.1 mg/ml of enzyme and 10 mM substrate at pH 7.0-8.2): 5 units/mg of protein
